Data from ChEMBL document CHEMBL4765450, “The components and activities analysis of a novel anticoagulant candidate dHG-5” (Eur J Med Chem, 2020).
The source made the active and inactive calls. The rule behind the calls is not given here.

Experiments:
[1] = biological target: Coagulation factor XI (Homo sapiens) (UniProt P03951); assay: Inhibition of factor 11a (unknown origin) at IC90 using S-2366 as substrate preincubated for 1 min followed by chromogenic substrate addition and measured for 2 mins in presence of AT-III; conditions: time 3.0 min
Coagulation factor XI (Homo sapiens), sequence (P03951 19-387 limits assumed): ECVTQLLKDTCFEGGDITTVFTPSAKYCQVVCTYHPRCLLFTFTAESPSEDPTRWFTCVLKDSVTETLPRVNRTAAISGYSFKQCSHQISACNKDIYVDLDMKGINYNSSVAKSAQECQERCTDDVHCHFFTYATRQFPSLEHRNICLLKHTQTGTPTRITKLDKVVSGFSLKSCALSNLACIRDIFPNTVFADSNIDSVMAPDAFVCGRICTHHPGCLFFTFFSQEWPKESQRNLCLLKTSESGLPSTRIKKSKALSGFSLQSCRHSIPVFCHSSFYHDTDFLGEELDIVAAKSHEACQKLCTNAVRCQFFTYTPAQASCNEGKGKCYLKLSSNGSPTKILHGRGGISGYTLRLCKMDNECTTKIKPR
Coagulation factor XI (Homo sapiens), sequence (P03951 388-625 limits assumed): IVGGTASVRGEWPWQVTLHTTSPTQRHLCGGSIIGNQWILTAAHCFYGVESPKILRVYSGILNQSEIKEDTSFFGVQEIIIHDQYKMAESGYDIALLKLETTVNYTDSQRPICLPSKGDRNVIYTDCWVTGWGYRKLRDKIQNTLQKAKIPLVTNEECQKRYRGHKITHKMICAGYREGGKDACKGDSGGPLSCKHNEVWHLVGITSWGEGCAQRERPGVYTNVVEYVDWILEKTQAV

Mus musculus [2] = assay: Anticoagulation activity in Kunming mouse assessed as APTT-prolonging effect by measuring time for maximum effect at 1.7 mg/kg, sc measured after 0.5 to 8 hrs by APTT reagent based assay; type: functional; conditions: time 0.5-8 hrs
[3] = biological target: Prothrombin (Homo sapiens) (UniProt P00734); assay: Inhibition of factor 2a (unknown origin) at IC50 preincubated for 1 min followed by chromogenic substrate addition and measured for 2 mins in presence of AT-III; conditions: time 3.0 min
[4] = biological target: T1, Coagulation factor VII (Homo sapiens) (UniProt P08709); assay: Inhibition of factor 7a (unknown origin) at IC50 using pefachrome factor VIIa as substrate preincubated for 1 min followed by chromogenic substrate addition and measured for 2 mins in presence of AT-III; conditions: time 3.0 min
T1 sequence (whole entry): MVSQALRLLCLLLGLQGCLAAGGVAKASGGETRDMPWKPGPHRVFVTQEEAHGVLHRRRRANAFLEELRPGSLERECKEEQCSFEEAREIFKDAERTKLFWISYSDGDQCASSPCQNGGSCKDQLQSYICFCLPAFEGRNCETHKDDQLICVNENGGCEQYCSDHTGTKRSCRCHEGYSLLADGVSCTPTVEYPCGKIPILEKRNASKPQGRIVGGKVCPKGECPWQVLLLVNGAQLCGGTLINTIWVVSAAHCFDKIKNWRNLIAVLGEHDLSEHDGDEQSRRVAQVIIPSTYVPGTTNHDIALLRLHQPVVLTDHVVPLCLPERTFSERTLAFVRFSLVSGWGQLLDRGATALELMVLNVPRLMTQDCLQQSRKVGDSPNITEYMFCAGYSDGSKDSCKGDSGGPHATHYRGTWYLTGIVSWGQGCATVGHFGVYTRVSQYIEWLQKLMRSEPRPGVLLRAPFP

Coagulation factor IX = Coagulation factor IX (Homo sapiens, UniProt P00740); assay: Inhibition of factor 9a (unknown origin) binding to immobilized biotinylated oHG-11 by biolayer interferometry
Coagulation factor IX, sequence (P00740 47-191 limits assumed): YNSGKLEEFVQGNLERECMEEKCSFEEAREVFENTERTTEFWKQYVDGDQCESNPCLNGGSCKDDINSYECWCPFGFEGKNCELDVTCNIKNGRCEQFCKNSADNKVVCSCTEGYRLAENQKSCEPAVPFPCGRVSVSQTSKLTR
Coagulation factor IX, sequence (P00740 227-461 limits assumed): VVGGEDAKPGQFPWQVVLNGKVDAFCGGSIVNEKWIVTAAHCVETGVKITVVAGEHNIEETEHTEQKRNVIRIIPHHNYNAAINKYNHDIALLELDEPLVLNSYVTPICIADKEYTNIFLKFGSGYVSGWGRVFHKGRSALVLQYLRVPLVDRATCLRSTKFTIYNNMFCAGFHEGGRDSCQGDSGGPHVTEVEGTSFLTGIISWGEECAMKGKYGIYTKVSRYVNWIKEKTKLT

[5] = Tmax in Kunming mouse at 5.11 mg/kg, sc; type: ADME, organism-based; conditions: in vivo
Mus musculus [6] = assay: Anticoagulation activity in Kunming mouse assessed as APTT-prolonging effect by measuring time for maximum effect at 5.11 mg/kg, sc measured after 0.5 to 8 hrs by APTT reagent based assay; type: functional; conditions: time 0.5-8 hrs
Rattus norvegicus [7] = assay: Antithrombotic activity in thromboplastin and stasis-induced Sprague-Dawley rat deep venous thrombosis model assessed as reduction in venous thrombosis administered subcutaneously 1 hr prior to thromboplastin addition for 20 secs followed by establishment of stasis for 20 mins; type: functional; conditions: time 80.33 min
[8] = biological target: T2, Coagulation factor XII (Homo sapiens) (UniProt P00748); assay: Inhibition of factor 12a (unknown origin) at IC50 using kallikrein chromogenic substrate preincubated for 1 min followed by chromogenic substrate addition and measured for 2 mins; conditions: time 3.0 min
T2 sequence (whole entry): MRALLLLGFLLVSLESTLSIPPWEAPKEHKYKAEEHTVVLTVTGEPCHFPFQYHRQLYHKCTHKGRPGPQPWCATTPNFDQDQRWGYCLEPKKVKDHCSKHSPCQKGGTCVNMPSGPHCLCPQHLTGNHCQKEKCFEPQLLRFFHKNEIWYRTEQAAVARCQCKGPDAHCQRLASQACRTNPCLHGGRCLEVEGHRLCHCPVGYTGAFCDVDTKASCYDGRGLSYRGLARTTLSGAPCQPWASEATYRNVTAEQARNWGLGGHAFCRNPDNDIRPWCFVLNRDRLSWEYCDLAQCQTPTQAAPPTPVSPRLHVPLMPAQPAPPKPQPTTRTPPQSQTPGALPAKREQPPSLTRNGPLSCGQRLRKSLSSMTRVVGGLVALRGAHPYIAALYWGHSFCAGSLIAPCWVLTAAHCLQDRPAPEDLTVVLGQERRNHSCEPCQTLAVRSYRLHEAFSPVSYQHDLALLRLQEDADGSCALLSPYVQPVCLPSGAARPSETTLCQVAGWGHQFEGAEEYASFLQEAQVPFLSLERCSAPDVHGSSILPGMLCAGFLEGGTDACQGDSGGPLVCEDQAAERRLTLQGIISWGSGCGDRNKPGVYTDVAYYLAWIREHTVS

[9] = biological target: Coagulation factor X (Homo sapiens) (UniProt P00742); assay: Inhibition of factor 10a (unknown origin) at IC50 preincubated for 1 min followed by chromogenic substrate addition and measured for 2 mins; conditions: time 3.0 min
Coagulation factor X (Homo sapiens), sequence (P00742 41-179 limits assumed): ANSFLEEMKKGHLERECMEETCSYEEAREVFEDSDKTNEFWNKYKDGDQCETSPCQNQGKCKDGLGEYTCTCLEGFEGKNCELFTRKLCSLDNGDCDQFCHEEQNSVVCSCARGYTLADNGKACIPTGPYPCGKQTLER
Coagulation factor X (Homo sapiens), sequence (P00742 235-488 limits assumed): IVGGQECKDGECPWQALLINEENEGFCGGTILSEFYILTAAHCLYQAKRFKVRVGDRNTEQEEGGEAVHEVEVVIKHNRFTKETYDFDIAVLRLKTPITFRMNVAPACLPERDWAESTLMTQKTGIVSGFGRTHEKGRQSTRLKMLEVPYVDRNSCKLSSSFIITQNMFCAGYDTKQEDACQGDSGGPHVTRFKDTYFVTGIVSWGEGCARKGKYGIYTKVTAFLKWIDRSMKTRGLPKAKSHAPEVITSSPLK

[10] = Half life in Kunming mouse at 15.3 mg/kg, sc; type: ADME, organism-based; conditions: in vivo
Rattus norvegicus [11] = assay: Antithrombotic activity in thromboplastin and stasis-induced Sprague-Dawley rat deep venous thrombosis model assessed as reduction in venous thrombosis at 2.7 mg/kg, sc administered 1 hr prior to thromboplastin addition for 20 secs followed by establishment of stasis for 20 mins; type: functional; parameters: scale not given: the % may be the effect or the level left; conditions: time 80.33 min, 1.339 h
[12] = MRT (0 to infinity) in Kunming mouse at 15.3 mg/kg, sc; type: ADME, organism-based; conditions: in vivo
[13] = biological target: Coagulation factor IX/VIII (Homo sapiens, UniProt P00451+P00740); assay: Inhibition of human citrated plasma iXase (factor 8a-factor 9a complex) preincubated for 2 mins followed by factor 10 addition and measured after 1 min by FXa chromogenic substrate SXa-11 based assay; type: protein-complex assay
Coagulation factor IX/VIII, sequence (P00451 20-759 limits assumed): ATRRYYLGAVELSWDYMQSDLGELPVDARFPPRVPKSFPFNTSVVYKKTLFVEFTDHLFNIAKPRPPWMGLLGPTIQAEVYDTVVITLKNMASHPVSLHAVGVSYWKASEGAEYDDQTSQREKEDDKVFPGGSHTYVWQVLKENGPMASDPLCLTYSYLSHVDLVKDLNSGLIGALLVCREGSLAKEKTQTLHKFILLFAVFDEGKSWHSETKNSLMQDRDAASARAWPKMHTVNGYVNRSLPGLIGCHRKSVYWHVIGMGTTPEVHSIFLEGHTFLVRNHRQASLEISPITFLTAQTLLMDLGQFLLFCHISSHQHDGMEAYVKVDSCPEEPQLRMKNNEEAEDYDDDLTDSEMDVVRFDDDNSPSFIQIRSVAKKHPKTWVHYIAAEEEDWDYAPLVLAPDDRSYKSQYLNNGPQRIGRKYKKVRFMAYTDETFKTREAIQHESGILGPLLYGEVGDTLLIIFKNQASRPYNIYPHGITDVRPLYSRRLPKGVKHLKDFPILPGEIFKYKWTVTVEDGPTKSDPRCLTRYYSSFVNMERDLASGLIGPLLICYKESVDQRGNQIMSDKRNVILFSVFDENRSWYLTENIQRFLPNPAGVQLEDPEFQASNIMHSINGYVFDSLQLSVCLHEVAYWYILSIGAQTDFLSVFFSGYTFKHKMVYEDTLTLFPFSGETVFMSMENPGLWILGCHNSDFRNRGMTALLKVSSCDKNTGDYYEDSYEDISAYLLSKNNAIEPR
Coagulation factor IX/VIII, sequence (P00451 1668-2351 limits assumed): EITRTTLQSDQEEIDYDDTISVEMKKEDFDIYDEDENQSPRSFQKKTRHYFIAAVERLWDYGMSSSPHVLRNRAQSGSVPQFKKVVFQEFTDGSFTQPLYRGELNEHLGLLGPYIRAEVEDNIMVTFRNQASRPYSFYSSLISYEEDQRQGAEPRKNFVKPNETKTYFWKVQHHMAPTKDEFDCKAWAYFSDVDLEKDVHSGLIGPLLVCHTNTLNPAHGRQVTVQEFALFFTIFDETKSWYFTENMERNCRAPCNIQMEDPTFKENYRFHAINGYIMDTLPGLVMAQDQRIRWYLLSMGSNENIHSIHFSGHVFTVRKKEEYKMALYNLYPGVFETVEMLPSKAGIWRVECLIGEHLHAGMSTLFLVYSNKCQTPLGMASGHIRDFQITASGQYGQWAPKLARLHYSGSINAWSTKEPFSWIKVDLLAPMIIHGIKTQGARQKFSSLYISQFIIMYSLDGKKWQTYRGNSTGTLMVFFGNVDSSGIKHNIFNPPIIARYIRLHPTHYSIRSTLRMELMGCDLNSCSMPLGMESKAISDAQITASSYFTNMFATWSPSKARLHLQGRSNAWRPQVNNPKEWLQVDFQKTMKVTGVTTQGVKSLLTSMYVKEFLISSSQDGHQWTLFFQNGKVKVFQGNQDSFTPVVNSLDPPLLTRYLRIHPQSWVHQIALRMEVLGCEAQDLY
Coagulation factor IX/VIII, sequence (P00740 47-191 limits assumed): as the sequence (P00740 47-191 limits assumed) above
Coagulation factor IX/VIII, sequence (P00740 227-461 limits assumed): as the sequence (P00740 227-461 limits assumed) above

[14] = Toxicity in Kunming mouse tail bleeding model assessed as blood loss at 73.01 mg/kg, sc measured after 1 hr by UV-vis spectrophotometry; type: organism-based; conditions: in vivo
[15] = biological target: T1, Coagulation factor VII (Homo sapiens); assay: Inhibition of factor 7a (unknown origin) at IC50 using pefachrome factor VIIa as substrate preincubated for 1 min followed by chromogenic substrate addition and measured for 2 mins; conditions: time 3.0 min
[16] = Tmax in Kunming mouse at 15.3 mg/kg, sc; type: ADME, organism-based; conditions: in vivo
Plasma [17] = assay: Anticoagulation activity in AT-III-deficient human plasma preincubated for 2 mins followed by APTT reagent and measured after 3 mins by coagulometric method; type: functional, cell-free; conditions: time 5.0 min
[18] = Half life in Kunming mouse at 5.11 mg/kg, sc; type: ADME, organism-based; conditions: in vivo
[19] = MRT (0 to infinity) in Kunming mouse at 1.7 mg/kg, sc; type: ADME, organism-based; conditions: in vivo
[20] = MRT (0 to infinity) in Kunming mouse at 5.11 mg/kg, sc; type: ADME, organism-based; conditions: in vivo
[21] = biological target: Coagulation factor XI (Homo sapiens) (UniProt P03951); assay: Inhibition of factor 11a (unknown origin) at IC50 using S-2366 as substrate preincubated for 1 min followed by chromogenic substrate addition and measured for 2 mins; conditions: time 3.0 min
Plasma [22] = assay: Anticoagulation activity in HCII-deficient human plasma preincubated for 2 mins followed by APTT reagent and measured after 3 mins by coagulometric method; type: functional, cell-free; conditions: time 5.0 min
[23] = biological target: Coagulation factor XI (Homo sapiens) (UniProt P03951); assay: Inhibition of factor 11a (unknown origin) at IC50 using S-2366 as substrate preincubated for 1 min followed by chromogenic substrate addition and measured for 2 mins in presence of AT-III; conditions: time 3.0 min
[24] = biological target: T2, Coagulation factor XII (Homo sapiens); assay: Inhibition of factor 12a (unknown origin) at IC50 using kallikrein chromogenic substrate preincubated for 1 min followed by chromogenic substrate addition and measured for 2 mins in presence of AT-III; conditions: time 3.0 min

CC(=O)N[C@H]1[C@H](O[C@H]2[C@H](O[C@@H]3O[C@@H](C)[C@@H](OS(=O)(=O)[O-])[C@@H](O)[C@@H]3OS(=O)(=O)O)[C@@H](O)[C@H](O[C@H]3[C@@H](NC(C)=O)[C@H](O[C@H]4[C@H](O[C@@H]5O[C@@H](C)[C@@H](OS(=O)(=O)[O-])[C@@H](O)[C@@H]5OS(=O)(=O)O)[C@@H](O)[C@H](O[C@H]5[C@@H](NC(C)=O)[C@H](O[C@H]6[C@H](O[C@@H]7O[C@@H](C)[C@@H](OS(=O)(=O)[O-])[C@@H](O)[C@@H]7OS(=O)(=O)O)[C@@H](O)[C@H](O[C@H]7[C@@H](NC(C)=O)[C@H](O[C@H]8[C@H](O[C@@H]9O[C@@H](C)[C@@H](OS(=O)(=O)[O-])[C@@H](O)[C@@H]9OS(=O)(=O)O)[C@@H](O)[C@H](O[C@H]9[C@@H](NC(C)=O)[C@H](O[C@@H]([C@H](O[C@@H]%10O[C@@H](C)[C@@H](OS(=O)(=O)[O-])[C@@H](O)[C@@H]%10OS(=O)(=O)O)[C@@H](O)CO)[C@H](O)C(=O)[O-])O[C@H](COS(=O)(=O)[O-])[C@@H]9OS(=O)(=O)[O-])O[C@@H]8C(=O)[O-])O[C@H](COS(=O)(=O)[O-])[C@@H]7OS(=O)(=O)[O-])O[C@@H]6C(=O)[O-])O[C@H](COS(=O)(=O)[O-])[C@@H]5OS(=O)(=O)[O-])O[C@@H]4C(=O)[O-])O[C@H](COS(=O)(=O)[O-])[C@@H]3OS(=O)(=O)[O-])O[C@@H]2C(=O)[O-])O[C@H](COS(=O)(=O)[O-])[C@H](OS(=O)(=O)[O-])[C@@H]1O[C@@H]1OC(C(=O)[O-])=C[C@H](O[C@@H]2O[C@@H](C)[C@@H](OS(=O)(=O)[O-])[C@@H](O)[C@@H]2OS(=O)(=O)O)[C@H]1O.[Na+].[Na+].[Na+].[Na+].[Na+].[Na+].[Na+].[Na+].[Na+].[Na+].[Na+].[Na+].[Na+].[Na+].[Na+].[Na+].[Na+].[Na+].[Na+].[Na+].[Na+].[Na+]
inhibition [1]: Active
Emax (Mus musculus [2]): 4.39 s
inhibition [3]: inactive
inhibition [4]: inactive
IC50 (Coagulation factor IX): 430 nM
Tmax [5]: 45 min
Emax (Mus musculus [6]): 7.68 s
ED50 (Rattus norvegicus [7]; sc, 1.339 h): 2.38 mg/kg
Activity (Rattus norvegicus [7]): Dose-dependent effect
inhibition [8]: inactive
inhibition [9]: inactive
half-life [10]: 33.8 min
Activity (Rattus norvegicus [11]): 60.7%
MRT inf [12]: 103 min
IC50 [13]: 14 nM
Activity [14]: 139 µL
inhibition (active/not active) [15]: inactive
Tmax [16]: 45 min
Activity (Plasma [17]): Active
half-life [18]: 33.8 min
MRT inf [19]: 133 min
MRT inf [20]: 91.2 min
inhibition [21]: inactive
Activity (Plasma [22]): Active
inhibition [23]: inactive
inhibition [24]: inactive
